Measured values taken from ChEMBL document CHEMBL4346757, “Synthesis and biological evaluation of 7-methoxy-1-(3,4,5-trimethoxyphenyl)-4,5-dihydro-2H-benzo[e]indazoles as new colchicine site inhibitors” (Bioorg Med Chem Lett, 2019).

What was measured:
Assay type in all cases: functional
[1] = test system: HOP-92; test: Growth inhibition of human HOP92 cells assessed as cell growth at 0.01 uM after 48 hrs by SRB assay relative to control; details: HOP-92, 48 h, read-out: Activity
[2] = test system: NCI-H522; test: Growth inhibition of human NCI-H522 cells assessed as cell growth at 0.01 uM after 48 hrs by SRB assay relative to control; details: NCI-H522, 48 h, read-out: Activity
[3] = test system: SNB-75; test: Growth inhibition of human SNB75 cells assessed as cell growth at 0.01 uM after 48 hrs by SRB assay relative to control; details: SNB-75, 48 h, read-out: Activity
[4] = test system: M14; test: Growth inhibition of human M14 cells assessed as cell growth at 0.01 uM after 48 hrs by SRB assay relative to control; details: M14, 48 h, read-out: Activity
[5] = test system: MDA-MB-435; test: Growth inhibition of human MDA-MB-435 cells assessed as cell growth at 0.01 uM after 48 hrs by SRB assay relative to control; details: MDA-MB-435, 48 h, read-out: Activity
[6] = test system: IGROV-1; test: Growth inhibition of human IGROV1 cells assessed as cell growth at 0.01 uM after 48 hrs by SRB assay relative to control; details: IGROV-1, 48 h, read-out: Activity
[7] = test system: ACHN; test: Growth inhibition of human ACHN cells assessed as cell growth at 0.01 uM after 48 hrs by SRB assay relative to control; details: read-out: Activity
[8] = test system: Hs-578T; test: Growth inhibition of human Hs 578T cells assessed as cell growth at 0.01 uM after 48 hrs by SRB assay relative to control; details: read-out: Activity
[9] = test system: A549; test: Growth inhibition of human A549/ATCC cells assessed as cell growth at 0.1 uM after 48 hrs by SRB assay relative to control; details: A549, 48 h, read-out: Activity
[10] = test system: CAKI-1; test: Growth inhibition of human Caki1 cells assessed as cell growth at 0.1 uM after 48 hrs by SRB assay relative to control; details: CAKI-1, 48 h, read-out: Activity
[11] = test system: SN12C; test: Growth inhibition of human SN12C cells assessed as cell growth at 0.1 uM after 48 hrs by SRB assay relative to control; details: read-out: Activity
[12] = test system: DU-145; test: Growth inhibition of human DU145 cells assessed as cell growth at 0.1 uM after 48 hrs by SRB assay relative to control; details: DU-145, 48 h, read-out: Activity
[13] = test system: CCRF-CEM; test: Growth inhibition of human CCRF-CEM cells assessed as cell growth at 1 uM after 48 hrs by SRB assay relative to control; details: read-out: Activity
[14] = test system: HCT-15; test: Growth inhibition of human HCT15 cells assessed as cell growth at 1 uM after 48 hrs by SRB assay relative to control; details: HCT-15, 48 h, read-out: Activity
[15] = test system: Malme-3M; test: Growth inhibition of human MALME-3M cells assessed as cell growth at 1 uM after 48 hrs by SRB assay relative to control; details: read-out: Activity
[16] = test system: 786-0; test: Growth inhibition of human 786-0 cells assessed as cell growth at 1 uM after 48 hrs by SRB assay relative to control; details: 786-0, 48 h, read-out: Activity
[17] = test system: BT-549; test: Growth inhibition of human BT549 cells assessed as cell growth at 1 uM after 48 hrs by SRB assay relative to control; details: BT-549, 48 h, read-out: Activity
[18] = test system: MDA-MB-468; test: Growth inhibition of human MDA-MB-468 cells assessed as cell growth at 1 uM after 48 hrs by SRB assay relative to control; details: MDA-MB-468, 48 h, read-out: Activity
[19] = test system: SN12C; test: Growth inhibition of human SN12C cells assessed as cell growth at 10 uM after 48 hrs by SRB assay relative to control; details: read-out: Activity
[20] = test system: BT-549; test: Growth inhibition of human BT549 cells assessed as cell growth at 10 uM after 48 hrs by SRB assay relative to control; details: BT-549, 48 h, read-out: Activity
[21] = test system: MDA-MB-468; test: Growth inhibition of human MDA-MB-468 cells assessed as cell growth at 10 uM after 48 hrs by SRB assay relative to control; details: MDA-MB-468, 48 h, read-out: Activity
[22] = test system: HOP-92; test: Growth inhibition of human HOP92 cells assessed as cell growth at 100 uM after 48 hrs by SRB assay relative to control; details: HOP-92, 48 h, read-out: Activity
[23] = test system: COLO 205; test: Growth inhibition of human COLO205 cells assessed as cell growth at 100 uM after 48 hrs by SRB assay relative to control; details: COLO 205, 48 h, read-out: Activity
[24] = test system: IGROV-1; test: Growth inhibition of human IGROV1 cells assessed as cell growth at 100 uM after 48 hrs by SRB assay relative to control; details: IGROV-1, 48 h, read-out: Activity
[25] = test system: SK-OV-3; test: Growth inhibition of human SKOV3 cells assessed as cell growth at 100 uM after 48 hrs by SRB assay relative to control; details: SK-OV-3, 48 h, read-out: Activity
[26] = test system: HCC 2998; test: Cytotoxicity against human HCC2998 cells assessed as growth inhibition after 48 hrs by SRB assay; details: HCC 2998, 48 h
[27] = test system: HCT-116; test: Cytotoxicity against human HCT116 cells assessed as growth inhibition after 48 hrs by SRB assay; details: HCT-116, 48 h
[28] = test system: SF-268; test: Cytotoxicity against human SF268 cells assessed as growth inhibition after 48 hrs by SRB assay; details: SF-268, 48 h
[29] = test system: SK-MEL-2; test: Cytotoxicity against human SK-MEL-2 cells assessed as growth inhibition after 48 hrs by SRB assay; details: SK-MEL-2, 48 h
[30] = test system: OVCAR-8; test: Cytotoxicity against human OVCAR8 cells assessed as growth inhibition after 48 hrs by SRB assay; details: OVCAR-8, 48 h
[31] = test system: MDA-MB-468; test: Cytotoxicity against human MDA-MB-468 cells assessed as growth inhibition after 48 hrs by SRB assay; details: MDA-MB-468, 48 h
[32] = read-out: LC50 (the source's name)
[33] = read-out: pLC50 (the source's name) (converted)

## COc1ccc2c(c1)CCc1n[nH]c(-c3cc(OC)c(OC)c(OC)c3)c1-2
[1]
  growth at 0.01 µM: 39%
[2]
  growth at 0.01 µM: -16%
[3]
  growth at 0.01 µM: 12%
[4]
  growth at 0.01 µM: 2%
[5]
  growth at 0.01 µM: -45%
[6]
  growth at 0.01 µM: 39%
[7]
  growth at 0.01 µM: 30%
[8]
  growth at 0.01 µM: 14%
[9]
  growth at 0.1 µM: 11%
[10]
  growth at 0.1 µM: 23%
[11]
  growth at 0.1 µM: 35%
[12]
  growth at 0.1 µM: 10%
[13]
  growth at 1 µM: 42%
[14]
  growth at 1 µM: 4%
[15]
  growth at 1 µM: 44%
[16]
  growth at 1 µM: 14%
[17]
  growth at 1 µM: 3%
[18]
  growth at 1 µM: -1%
[19]
  growth at 10 µM: 24%
[20]
  growth at 10 µM: 1%
[21]
  growth at 10 µM: -5%
[22]
  growth at 100 µM: -50%
[23]
  growth at 100 µM: -71%
[24]
  growth at 100 µM: -33%
[25]
  growth at 100 µM: -50%
[26]; read-out: GI50
  GI50: < 0.01 µM
[26]; [32]
  CC50: 44.3 µM
[26]; read-out: TGI
  TGI: 11.4 µM
[26]; read-out: pGI50 (converted)
  GI50: < 0.01 µM
[26]; [33]
  CC50: 44.7 µM
[26]; read-out: pTGI (converted)
  TGI: 11.5 µM
[27]; read-out: GI50
  GI50: < 0.01 µM
[27]; [32]
  CC50: 48.9 µM
[27]; read-out: TGI
  TGI: 1.16 µM
[27]; read-out: pGI50 (converted)
  GI50: < 0.01 µM
[27]; [33]
  CC50: 49 µM
[27]; read-out: pTGI (converted)
  TGI: 1.15 µM
[28]; read-out: GI50
  GI50: < 0.01 µM
[28]; [32]
  CC50: > 100 µM
[28]; read-out: TGI
  TGI: 26.8 µM
[28]; read-out: pGI50 (converted)
  GI50: < 0.01 µM
[28]; [33]
  CC50: > 100 µM
[28]; read-out: pTGI (converted)
  TGI: 26.9 µM
[29]; read-out: GI50
  GI50: < 0.01 µM
[29]; read-out: LC50
  LC50: 98.7 µM
[29]; read-out: TGI
  TGI: 26.8 µM
[29]; read-out: pGI50 (converted)
  GI50: < 0.01 µM
[29]; read-out: pLC50 (converted)
  LC50: 97.7 µM
[29]; read-out: pTGI (converted)
  TGI: 26.9 µM
[30]; read-out: GI50
  GI50: < 0.01 µM
[30]; read-out: LC50
  LC50 (concentration killing 50% of cells): > 100 µM
[30]; read-out: TGI
  TGI: 15.4 µM
[30]; read-out: pGI50 (converted)
  GI50: < 0.01 µM
[30]; read-out: pLC50 (converted)
  LC50 (concentration killing 50% of cells): > 100 µM
[30]; read-out: pTGI (converted)
  TGI: 15.5 µM
[31]; read-out: GI50
  GI50: < 0.01 µM
[31]; read-out: LC50
  LC50 (concentration killing 50% of cells): > 100 µM
[31]; read-out: TGI
  TGI: < 0.01 µM
[31]; read-out: pGI50 (converted)
  GI50: < 0.01 µM
[31]; read-out: pLC50 (converted)
  LC50 (concentration killing 50% of cells): > 100 µM
[31]; read-out: pTGI
  TGI: < 0.01 µM
